Literature values as cited in patent publication US10563162B2, “Microbial electro-photosynthesis” (Arizona Board of Regents on behalf of Arizona State …, priority 2014, dated 2020).

Details: listed property of redox mediator / natural electron acceptor; no method given

Molecule	midpoint potential (E^0,) [mV]	number of electrons transported (# e−)
O=C1C=CC(=O)C=C1 [Benzoquinone]	280	2
CC1=C(C)C(=O)C(C)=C(C)C1=O [Duroquinone]	5	2
CN(C)c1ccc2nc3ccc(=[N+](C)C)cc-3sc2c1 [Methylene Blue]	11	2
CC(C)=CCC/C(C)=C/CC/C(C)=C/CC/C(C)=C/CC/C(C)=C/CC/C(C)=C/CC/C(C)=C/CC/C(C)=C/CC/C(C)=C/CC1=CC(=O)C(C)=C(C)C1=O [Plastoquinone]	80	2
Thionine	64	2
